Data reported in patent EP4603105A1, “PHARMACEUTICAL COMPOSITION CONTAINING CYCLIC COMPOUND HAVING SELECTIVE KRAS INHIBITORY EFFECT AGAINST HRAS AND NRAS” (CHUGAI SEIYAKU KABUSHIKI KAISHA, priority 2022, dated 2024).

How the values were obtained:
[1] = target: GDP-bound NRAS wild-type protein (Homo sapiens, UniProt P01111); assay: Binding to NRAS by surface plasmon resonance (SPR), KD and KD ratio to KRAS; settings: ratio of KD value for GDP-bound NRAS wild-type protein to KD value for KRAS (SPR)
Method in brief: (§1)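 Affinity is measured by surface plasmon resonance at 30°C against captured, GDP-loaded RAS carrying a biotinylated Avi tag. Compounds are titrated by single-cycle kinetics, and KD comes from a 1:1 fit.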

HRAS wild-type protein = HRAS wild-type protein (Homo sapiens, UniProt P01112); assay: Binding to HRAS by surface plasmon resonance (SPR), KD and KD ratio to KRAS; settings: ratio of KD value for HRAS wild-type protein to KD value for KRAS (SPR)
Method in brief: as §1

[2] = tested on: human lung cancer strain NCI-H441; assay type: cell-based
Method in brief: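 Readout: […] after the ATP-based reagent. Compound: serial dilutions in dimethyl sulfoxide.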

Chain of GDP-bound NRAS wild-type protein (P01111 whole entry): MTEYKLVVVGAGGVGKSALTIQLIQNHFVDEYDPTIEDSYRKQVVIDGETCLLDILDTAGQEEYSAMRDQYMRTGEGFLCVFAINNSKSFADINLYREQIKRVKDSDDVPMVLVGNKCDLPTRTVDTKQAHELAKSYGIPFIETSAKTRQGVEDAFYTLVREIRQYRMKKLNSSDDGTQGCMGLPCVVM
Chain of HRAS wild-type protein (P01112 whole entry): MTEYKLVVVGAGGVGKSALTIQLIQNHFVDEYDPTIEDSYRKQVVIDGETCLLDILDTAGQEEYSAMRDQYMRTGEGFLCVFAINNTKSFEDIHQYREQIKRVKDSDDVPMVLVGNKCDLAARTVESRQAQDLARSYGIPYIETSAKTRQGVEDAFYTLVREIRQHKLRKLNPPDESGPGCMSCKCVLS

SMILES	NRAS /KRAS [1]	HRAS /KRAS (HRAS wild-type protein)	IC50 [2] [nM]
CCO[C@@H]1C[C@H]2C(=O)NC3(CC(F)(F)C3)C(=O)N(C)[C@@H](C3CCCC3)C(=O)N(C)[C@H](C(=O)N(C)CC)CC(=O)N(C)[C@@H](CC3CC3)C(=O)N[C@@H]([C@@H](C)CC)C(=O)N(C)CC(=O)N(C)[C@H]3C/C=C\CCN(C3=O)[C@@H](Cc3ccc(C(F)(F)F)cc3)C(=O)N(C)CC(=O)N[C@@H](CCc3cc(F)c(C(F)(F)F)c(F)c3)C(=O)N2C1 [PP1738]	AA (a compound having 20 or more is denoted as AA)	A (a compound having 10 or more and less than 20 is denoted as A)	5.1
CCCN(C)C(=O)[C@@H]1CC(=O)N(C)[C@@H](CC2CC2)C(=O)N[C@@H]([C@@H](C)CC)C(=O)N(C)CC(=O)N(C)[C@H]2C/C=C\CCN(C2=O)[C@@H](Cc2ccc(C(F)(F)F)cc2)C(=O)N(C)CC(=O)N[C@@H](CCc2cc(F)c(C(F)(F)F)c(F)c2)C(=O)N2C[C@H](OCC)C[C@H]2C(=O)NC2(CC(F)(F)C2)C(=O)N(C)[C@@H](C2CCCC2)C(=O)N1C [PP1739]	AA (a compound having 20 or more is denoted as AA)	AA (a compound having 20 or more is denoted as AA)	5.5
CCO[C@@H]1C[C@H]2C(=O)NC3(CC(F)(F)C3)C(=O)N(C)[C@@H](C3CCCC3)C(=O)N(C)[C@H](C(=O)N(C)C)CC(=O)N(C)[C@@H](CC(C)C)C(=O)N[C@@H]([C@@H](C)CC)C(=O)N(C)CC(=O)N(C)[C@H]3C/C=C\CCN(C3=O)[C@@H](Cc3ccc(C(F)(F)F)cc3)C(=O)N(C)CC(=O)N[C@@H](CCc3cc(F)c(C(F)(F)F)c(F)c3)C(=O)N2C1 [PP1741]	A (a compound having 10 or more and less than 20 is denoted as A)	B (a compound having 3 or more and less than 10 is denoted as B)	2.3
CCO[C@@H]1C[C@H]2C(=O)NC3(CC(F)(F)C3)C(=O)N(C)[C@@H](C3CCCC3)C(=O)N(C)[C@H](C(=O)N(C)C)CC(=O)N(C)[C@@H](CC3CCC3)C(=O)N[C@@H]([C@@H](C)CC)C(=O)N(C)CC(=O)N(C)[C@H]3C/C=C\CCN(C3=O)[C@@H](Cc3ccc(C(F)(F)F)cc3)C(=O)N(C)CC(=O)N[C@@H](CCc3cc(F)c(C(F)(F)F)c(F)c3)C(=O)N2C1 [PP1742]	A (a compound having 10 or more and less than 20 is denoted as A)	A (a compound having 10 or more and less than 20 is denoted as A)	1.6
CCCN(C)C(=O)[C@@H]1CC(=O)N(C)[C@@H](COC)C(=O)N[C@@H]([C@@H](C)CC)C(=O)N(C)CC(=O)N(C)[C@H]2C/C=C\CCN(C2=O)[C@@H](Cc2ccc(C(F)(F)F)cc2)C(=O)N(C)CC(=O)N[C@@H](CCc2cc(F)c(C(F)(F)F)c(F)c2)C(=O)N2C[C@H](OCC)C[C@H]2C(=O)NC2(CC(F)(F)C2)C(=O)N(C)[C@@H](C2CCCC2)C(=O)N1C [PP1743]	AA (a compound having 20 or more is denoted as AA)	A (a compound having 10 or more and less than 20 is denoted as A)	5.1
CCCOC[C@H]1C(=O)N[C@@H]([C@@H](C)CC)C(=O)N(C)CC(=O)N(C)[C@H]2C/C=C\CCN(C2=O)[C@@H](Cc2ccc(C(F)(F)F)cc2)C(=O)N(C)CC(=O)N[C@@H](CCc2cc(F)c(C(F)(F)F)c(F)c2)C(=O)N2C[C@H](OCC)C[C@H]2C(=O)NC2(CC(F)(F)C2)C(=O)N(C)[C@@H](C2CCCC2)C(=O)N(C)[C@H](C(=O)N(C)CCC)CC(=O)N1C [PP1744]	A (a compound having 10 or more and less than 20 is denoted as A)	A (a compound having 10 or more and less than 20 is denoted as A)	5.3
CCO[C@@H]1C[C@H]2C(=O)NC3(CC(C)(C)C3)C(=O)N(C)[C@@H](C3CCCC3)C(=O)N(C)[C@H](C(=O)N(C)C)CC(=O)N(C)[C@@H](CC)C(=O)N[C@@H]([C@@H](C)CC)C(=O)N(C)CC(=O)N(C)[C@H]3C/C=C\CCN(C3=O)[C@@H](Cc3ccc(C(F)(F)F)cc3)C(=O)N(C)CC(=O)N[C@@H](CCc3ccc(C(F)(F)F)c(Cl)c3)C(=O)N2C1 [PP1746]	A (a compound having 10 or more and less than 20 is denoted as A)	A (a compound having 10 or more and less than 20 is denoted as A)	1.9
CCO[C@@H]1C[C@H]2C(=O)NC3(CC(C)(C)C3)C(=O)N(C)[C@@H](C3CCCC3)C(=O)N(C)[C@H](C(=O)N(C)C)CC(=O)N(C)[C@@H](CC(F)F)C(=O)N[C@@H]([C@@H](C)CC)C(=O)N(C)CC(=O)N(C)[C@H]3C/C=C\CCN(C3=O)[C@@H](Cc3ccc(C(F)(F)F)cc3)C(=O)N(C)CC(=O)N[C@@H](CCc3ccc(C(F)(F)F)c(Cl)c3)C(=O)N2C1 [PP1747]	A (a compound having 10 or more and less than 20 is denoted as A)	A (a compound having 10 or more and less than 20 is denoted as A)	2.3
CCC[C@H]1C(=O)N[C@@H]([C@@H](C)CC)C(=O)N(C)CC(=O)N(C)[C@H]2C/C=C\CCN(C2=O)[C@@H](Cc2ccc(C(F)(F)F)cc2)C(=O)N(C)CC(=O)N[C@@H](CCc2ccc(C(F)(F)F)c(Cl)c2)C(=O)N2C[C@H](OCC)C[C@H]2C(=O)NC2(CC(C)(C)C2)C(=O)N(C)[C@@H](C2CCCC2)C(=O)N(C)[C@H](C(=O)N(C)C)CC(=O)N1C [PP1748]	A (a compound having 10 or more and less than 20 is denoted as A)	B (a compound having 3 or more and less than 10 is denoted as B)	3.1
CCO[C@@H]1C[C@H]2C(=O)NC3(CC(C)(C)C3)C(=O)N(C)[C@@H](C3CCCC3)C(=O)N(C)[C@H](C(=O)N(C)C)CC(=O)N(C)[C@@H](CC3CC3)C(=O)N[C@@H]([C@@H](C)CC)C(=O)N(C)CC(=O)N(C)[C@H]3C/C=C\CCN(C3=O)[C@@H](Cc3ccc(C(F)(F)F)cc3)C(=O)N(C)CC(=O)N[C@@H](CCc3ccc(C(F)(F)F)c(Cl)c3)C(=O)N2C1 [PP1749]	A (a compound having 10 or more and less than 20 is denoted as A)	A (a compound having 10 or more and less than 20 is denoted as A)	3.3
CCCC[C@H]1C(=O)N[C@@H]([C@@H](C)CC)C(=O)N(C)CC(=O)N(C)[C@H]2C/C=C\CCN(C2=O)[C@@H](Cc2ccc(C(F)(F)F)cc2)C(=O)N(C)CC(=O)N[C@@H](CCc2ccc(C(F)(F)F)c(Cl)c2)C(=O)N2C[C@H](OCC)C[C@H]2C(=O)NC2(CC(C)(C)C2)C(=O)N(C)[C@@H](C2CCCC2)C(=O)N(C)[C@H](C(=O)N(C)C)CC(=O)N1C [PP1750]	A (a compound having 10 or more and less than 20 is denoted as A)	B (a compound having 3 or more and less than 10 is denoted as B)	3.4
CCO[C@@H]1C[C@H]2C(=O)NC3(CC(C)(C)C3)C(=O)N(C)[C@@H](C3CCCC3)C(=O)N(C)[C@H](C(=O)N(C)C)CC(=O)N(C)[C@@H](CC(C)C)C(=O)N[C@@H]([C@@H](C)CC)C(=O)N(C)CC(=O)N(C)[C@H]3C/C=C\CCN(C3=O)[C@@H](Cc3ccc(C(F)(F)F)cc3)C(=O)N(C)CC(=O)N[C@@H](CCc3ccc(C(F)(F)F)c(Cl)c3)C(=O)N2C1 [PP1751]	A (a compound having 10 or more and less than 20 is denoted as A)	A (a compound having 10 or more and less than 20 is denoted as A)	2.2
CCO[C@@H]1C[C@H]2C(=O)NC3(CC(C)(C)C3)C(=O)N(C)[C@@H](C3CCCC3)C(=O)N(C)[C@H](C(=O)N(C)C)CC(=O)N(C)[C@@H](CC3CCC3)C(=O)N[C@@H]([C@@H](C)CC)C(=O)N(C)CC(=O)N(C)[C@H]3C/C=C\CCN(C3=O)[C@@H](Cc3ccc(C(F)(F)F)cc3)C(=O)N(C)CC(=O)N[C@@H](CCc3ccc(C(F)(F)F)c(Cl)c3)C(=O)N2C1 [PP1752]	A (a compound having 10 or more and less than 20 is denoted as A)	A (a compound having 10 or more and less than 20 is denoted as A)	5.8
CCO[C@@H]1C[C@H]2C(=O)NC3(CC(C)(C)C3)C(=O)N(C)[C@@H](C3CCCC3)C(=O)N(C)[C@H](C(=O)N(C)C)CC(=O)N(C)[C@@H](COC)C(=O)N[C@@H]([C@@H](C)CC)C(=O)N(C)CC(=O)N(C)[C@H]3C/C=C\CCN(C3=O)[C@@H](Cc3ccc(C(F)(F)F)cc3)C(=O)N(C)CC(=O)N[C@@H](CCc3ccc(C(F)(F)F)c(Cl)c3)C(=O)N2C1 [PP1753]	A (a compound having 10 or more and less than 20 is denoted as A)	A (a compound having 10 or more and less than 20 is denoted as A)	5.9
CCCOC[C@H]1C(=O)N[C@@H]([C@@H](C)CC)C(=O)N(C)CC(=O)N(C)[C@H]2C/C=C\CCN(C2=O)[C@@H](Cc2ccc(C(F)(F)F)cc2)C(=O)N(C)CC(=O)N[C@@H](CCc2ccc(C(F)(F)F)c(Cl)c2)C(=O)N2C[C@H](OCC)C[C@H]2C(=O)NC2(CC(C)(C)C2)C(=O)N(C)[C@@H](C2CCCC2)C(=O)N(C)[C@H](C(=O)N(C)C)CC(=O)N1C [PP1754]	A (a compound having 10 or more and less than 20 is denoted as A)	A (a compound having 10 or more and less than 20 is denoted as A)	3
CCCN(C)C(=O)[C@@H]1CC(=O)N(C)[C@@H](CC(F)F)C(=O)N[C@@H]([C@@H](C)CC)C(=O)N(C)CC(=O)N(C)[C@H]2C/C=C\CCN(C2=O)[C@@H](Cc2ccc(C(F)(F)F)cc2)C(=O)N(C)CC(=O)N[C@@H](CCc2cc(F)c(Cl)c(F)c2)C(=O)N2C[C@H](OCC)C[C@H]2C(=O)NC2(CC(C)(C)C2)C(=O)N(C)[C@@H](C2CCCC2)C(=O)N1C [PP1757]	AA (a compound having 20 or more is denoted as AA)	A (a compound having 10 or more and less than 20 is denoted as A)	7.1
